Results: patent publication US9902702B2, “Spirocycloheptanes as inhibitors of rock” (BRISTOL-MYERS SQUIBB COMPANY, priority 2014, dated 2018)

target: ROCK2 (Homo sapiens, UniProt O75116); experiment: ROCK assay: phosphorylation of FITC peptide substrate, LABCHIP 3000 mobility shift; format: biochemical; details: 5 μM ATP, 1.5 μM peptide substrate; read-out: ROCK2 Activity (ROCK IC50 range)
Procedure, shortened: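 IC50 values come from curve-fitting percent kinase inhibition across a compound dilution series. The reaction is started with Rho kinase variant in HEPES pH 7.5 buffer with MgCl2, Brij-35 and DTT, with 5 μM ATP, 1.5 μM FITC-labelled peptide and under 2% DMSO. After EDTA quench, product and substrate are separated by microfluidic mobility shift.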

ROCK2, sequence (O75116 whole entry, species assumed): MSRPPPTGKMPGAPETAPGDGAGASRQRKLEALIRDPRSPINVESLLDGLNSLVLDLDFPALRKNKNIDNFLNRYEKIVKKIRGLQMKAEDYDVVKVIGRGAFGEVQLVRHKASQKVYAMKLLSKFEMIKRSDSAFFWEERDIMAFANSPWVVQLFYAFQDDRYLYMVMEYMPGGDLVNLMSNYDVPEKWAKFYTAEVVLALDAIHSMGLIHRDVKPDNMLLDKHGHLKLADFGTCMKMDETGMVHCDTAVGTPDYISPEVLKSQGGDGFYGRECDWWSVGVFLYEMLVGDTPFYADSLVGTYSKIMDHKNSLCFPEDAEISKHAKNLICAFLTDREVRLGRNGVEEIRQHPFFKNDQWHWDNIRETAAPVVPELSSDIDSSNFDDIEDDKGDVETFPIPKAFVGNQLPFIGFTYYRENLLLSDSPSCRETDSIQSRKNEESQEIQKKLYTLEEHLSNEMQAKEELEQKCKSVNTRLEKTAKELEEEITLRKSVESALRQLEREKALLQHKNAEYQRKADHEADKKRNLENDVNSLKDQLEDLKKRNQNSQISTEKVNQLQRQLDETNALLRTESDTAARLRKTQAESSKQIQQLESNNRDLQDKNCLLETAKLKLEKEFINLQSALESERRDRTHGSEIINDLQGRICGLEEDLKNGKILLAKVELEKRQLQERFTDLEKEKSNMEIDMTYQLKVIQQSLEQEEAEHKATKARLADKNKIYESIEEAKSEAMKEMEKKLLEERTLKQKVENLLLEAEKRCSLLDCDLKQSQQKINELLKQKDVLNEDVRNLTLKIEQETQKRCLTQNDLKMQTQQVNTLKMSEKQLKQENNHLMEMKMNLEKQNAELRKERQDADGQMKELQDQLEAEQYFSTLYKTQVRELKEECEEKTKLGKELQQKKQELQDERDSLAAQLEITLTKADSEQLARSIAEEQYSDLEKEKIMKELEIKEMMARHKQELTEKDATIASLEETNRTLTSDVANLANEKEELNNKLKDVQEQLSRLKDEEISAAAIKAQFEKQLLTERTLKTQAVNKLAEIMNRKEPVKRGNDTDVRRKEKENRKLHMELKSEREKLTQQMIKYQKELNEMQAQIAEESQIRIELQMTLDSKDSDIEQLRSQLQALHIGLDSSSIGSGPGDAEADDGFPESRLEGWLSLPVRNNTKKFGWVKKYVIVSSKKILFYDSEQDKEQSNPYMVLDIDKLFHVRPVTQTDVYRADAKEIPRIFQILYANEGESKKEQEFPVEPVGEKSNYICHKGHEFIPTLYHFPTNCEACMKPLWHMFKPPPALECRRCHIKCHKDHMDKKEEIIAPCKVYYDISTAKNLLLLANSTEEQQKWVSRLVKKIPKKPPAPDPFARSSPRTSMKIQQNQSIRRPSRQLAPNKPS

SMILES	IC50
[H][C@]1(c2n[nH]c(=O)c3ccccc32)C[C@]2(C[C@@H](NC(=O)c3c[nH]c4ccccc34)C2)C1 (stereo partly drawn) [Example 300, N-((aR)-6-(4-oxo-3,4-dihydrophthalazin-1-yl)spiro[3.3]heptan-2-yl)-1H-indole-3-carboxamide]	5.1 to 15 nM
[H][C@]1(c2n[nH]c(=O)c3ccccc32)C[C@]2(C[C@@H](NC(=O)c3cc4cccc(Cl)c4n3C)C2)C1 (stereo partly drawn) [Example 301, 7-chloro-1-methyl-N-((aR)-6-(4-oxo-3,4-dihydrophthalazin-1-yl)spiro[3.3]heptan-2-yl)-1H-indole-2-carboxamide]	2.01 to 5 nM
[H][C@]1(c2n[nH]c(=O)c3ccccc32)C[C@]2(C[C@@H](NC(=O)c3cc4c(Cl)ccc(C)c4[nH]3)C2)C1 (stereo partly drawn) [Example 302, 4-chloro-7-methyl-N-((aR)-6-(4-oxo-3,4-dihydrophthalazin-1-yl)spiro[3.3]heptan-2-yl)-1H-indole-2-carboxamide]	0.2 to 2 nM
[H][C@]1(c2n[nH]c(=O)c3ccccc32)C[C@]2(C[C@@H](NC(=O)c3cc4nccnc4s3)C2)C1 (stereo partly drawn) [Example 303, N-((aR)-6-(4-oxo-3,4-dihydrophthalazin-1-yl)spiro[3.3]heptan-2-yl)thieno[2,3-b]pyrazine-6-carboxamide]	5.1 to 15 nM
[H][C@]1(c2n[nH]c(=O)c3ccccc32)C[C@]2(C[C@@H](NC(=O)c3cnn4cccc(Br)c34)C2)C1 (stereo partly drawn) [Example 304, 4-bromo-N-((aR)-6-(4-oxo-3,4-dihydrophthalazin-1-yl)spiro[3.3]heptan-2-yl)pyrazolo[1,5-a]pyridine-3-carboxamide]	15.1 to 100 nM
[H][C@]1(c2n[nH]c(=O)c3ccccc32)C[C@]2(C[C@@H](NC(=O)c3nc4ccc(Cl)cc4[nH]3)C2)C1 (stereo partly drawn) [Example 305, 6-chloro-N-((aR)-6-(4-oxo-3,4-dihydrophthalazin-1-yl)spiro[3.3]heptan-2-yl)-1H-benzo[d] imidazole-2-carboxamide]	15.1 to 100 nM
[H][C@]1(c2n[nH]c(=O)c3ccccc32)C[C@]2(C[C@@H](NC(=O)c3cc4cc(Cl)ccc4n3C)C2)C1 (stereo partly drawn) [Example 306, 5-chloro-1-methyl-N-((aR)-6-(4-oxo-3,4-dihydrophthalazin-1-yl)spiro[3.3]heptan-2-yl)-1H-indole-2-carboxamide]	5.1 to 15 nM
[H][C@]1(c2n[nH]c(=O)c3ccccc32)C[C@]2(C[C@@H](NC(=O)c3ccc4c(c3)ncn4C(C)C)C2)C1 (stereo partly drawn) [Example 307, 1-isopropyl-N-((aR)-6-(4-oxo-3,4-dihydrophthalazin-1-yl)spiro[3.3]heptan-2-yl)-1H-benzo[d] imidazole-5-carboxamide]	5.1 to 15 nM
[H][C@]1(c2n[nH]c(=O)c3ccccc32)C[C@]2(C[C@@H](NC(=O)c3ccc4[nH]cnc4c3)C2)C1 (stereo partly drawn) [Example 308, N-((aR)-6-(4-oxo-3,4-dihydrophthalazin-1-yl)spiro[3.3]heptan-2-yl)-1H-benzo[d] imidazole-5-carboxamide]	5.1 to 15 nM
[H][C@]1(c2n[nH]c(=O)c3ccccc32)C[C@]2(C[C@@H](NC(=O)c3ccc4[nH]c(C)nc4c3)C2)C1 (stereo partly drawn) [Example 309, 2-methyl-N-((aR)-6-(4-oxo-3,4-dihydrophthalazin-1-yl)spiro[3.3]heptan-2-yl)-1H-benzo[d] imidazole-5-carboxamide]	15.1 to 100 nM
O=C(NC1CC2(C1)CC(c1n[nH]c(=O)c3ccccc13)C2)c1cnc2[nH]cnc2c1 [Example 310, N-((aR)-6-(4-oxo-3,4-dihydrophthalazin-1-yl)spiro[3.3]heptan-2-yl)-3H-imidazo[4,5-b]pyridine-6-carboxamide]	15.1 to 100 nM
[H][C@]1(c2n[nH]c(=O)c3ccccc32)C[C@]2(C[C@@H](NC(=O)c3ccc(NC=O)c(O)c3)C2)C1 (stereo partly drawn) [Example 311, 4-formamido-3-hydroxy-N-((aR)-6-(4-oxo-3,4-dihydrophthalazin-1-yl)spiro[3.3]heptan-2-yl)benzamide]	5.1 to 15 nM
[H][C@]1(c2n[nH]c(=O)c3ccccc32)C[C@]2(C[C@@H](NC(=O)c3cc4cccnc4[nH]3)C2)C1 (stereo partly drawn) [Example 312, N-((aR)-6-(4-oxo-3,4-dihydrophthalazin-1-yl)spiro[3.3]heptan-2-yl)-1H-pyrrolo[2,3-b]pyridine-2-carboxamide]	5.1 to 15 nM
[H][C@]1(c2n[nH]c(=O)c3ccccc32)C[C@]2(C[C@@H](NC(=O)c3cc4ccc(Cl)cc4s3)C2)C1 (stereo partly drawn) [Example 313, 6-chloro-N-((aR)-6-(4-oxo-3,4-dihydrophthalazin-1-yl)spiro[3.3]heptan-2-yl)benzo[b] thiophene-2-carboxamide]	5.1 to 15 nM
[H][C@]1(c2n[nH]c(=O)c3ccccc32)C[C@]2(C[C@@H](NC(=O)c3cc4ccc(OC)cc4n3C)C2)C1 (stereo partly drawn) [Example 314, 6-methoxy-1-methyl-N-((aR)-6-(4-oxo-3,4-dihydrophthalazin-1-yl)spiro[3.3]heptan-2-yl)-1H-indole-2-carboxamide]	5.1 to 15 nM
[H][C@]1(c2n[nH]c(=O)c3ccccc32)C[C@]2(C[C@@H](NC(=O)c3ccc4nc(C)oc4c3)C2)C1 (stereo partly drawn) [Example 315, 2-methyl-N-((aR)-6-(4-oxo-3,4-dihydrophthalazin-1-yl)spiro[3.3]heptan-2-yl)benzo[d] oxazole-6-carboxamide]	15.1 to 100 nM
[H][C@]1(c2n[nH]c(=O)c3ccccc32)C[C@]2(C[C@@H](NC(=O)c3ccc4cn[nH]c4c3)C2)C1 (stereo partly drawn) [Example 316, N-((aR)-6-(4-oxo-3,4-dihydrophthalazin-1-yl)spiro[3.3]heptan-2-yl)-1H-indazole-6-carboxamide]	5.1 to 15 nM
[H][C@]1(c2n[nH]c(=O)c3ccccc32)C[C@]2(C[C@@H](NC(=O)c3ccc4c(c3)ncn4C)C2)C1 (stereo partly drawn) [Example 317, 1-methyl-N-((aR)-6-(4-oxo-3,4-dihydrophthalazin-1-yl)spiro[3.3]heptan-2-yl)-1H-benzo[d] imidazole-5-carboxamide]	5.1 to 15 nM
[H][C@]1(c2n[nH]c(=O)c3ccccc32)C[C@]2(C[C@@H](NC(=O)c3cnc4ccccn34)C2)C1 (stereo partly drawn) [Example 318, N-((aR)-6-(4-oxo-3,4-dihydrophthalazin-1-yl)spiro[3.3]heptan-2-yl)imidazo[1,2-a]pyridine-3-carboxamide]	5.1 to 15 nM
[H][C@]1(c2n[nH]c(=O)c3ccccc32)C[C@]2(C[C@@H](NC(=O)c3cc4cc(OCc5ccccc5)ccc4[nH]3)C2)C1 (stereo partly drawn) [Example 319, 5-(benzyloxy)-N-((aR)-6-(4-oxo-3,4-dihydrophthalazin-1-yl)spiro[3.3]heptan-2-yl)-1H-indole-2-carboxamide]	15.1 to 100 nM
[H][C@]1(c2n[nH]c(=O)c3ccccc32)C[C@]2(C[C@@H](NC(=O)c3cc4ccc(F)cc4[nH]3)C2)C1 (stereo partly drawn) [Example 320, 6-fluoro-N-((aR)-6-(4-oxo-3,4-dihydrophthalazin-1-yl)spiro[3.3]heptan-2-yl)-1H-indole-2-carboxamide]	5.1 to 15 nM
[H][C@]1(c2n[nH]c(=O)c3ccccc32)C[C@]2(C[C@@H](NC(=O)C3CCc4ccccc43)C2)C1 (stereo partly drawn) [Example 321, N-((aR)-6-(4-oxo-3,4-dihydrophthalazin-1-yl)spiro[3.3]heptan-2-yl)-2,3-dihydro-1H-indene-1-carboxamide]	100 to 2100 nM
[H][C@]1(c2n[nH]c(=O)c3ccccc32)C[C@]2(C[C@@H](NC(=O)c3cc4cccc(C)c4[nH]3)C2)C1 (stereo partly drawn) [Example 322, 7-methyl-N-((aR)-6-(4-oxo-3,4-dihydrophthalazin-1-yl)spiro[3.3]heptan-2-yl)-1H-indole-2-carboxamide]	2.01 to 5 nM
